{
  "source": "patent US20090239884A1",
  "about": "“Methods of Treating Inflammation” (priority 2006, published 2009)",
  "key": {"EAE in C57BL/6 mice": {"tested_on": "EAE in C57BL/6 mice", "test": "experimental autoimmune encephalomyelitis (EAE), clinical score", "assay_type": "in vivo, mouse", "description": "Induction of active EAE and clinical evaluation. Active EAE is induced in 8-12 weeks old mice by immunization with MOG p35-55 in complete Freund's adjuvant. 200 μg of MOG p35-55 peptide and 800 μg of killed mycobacterium tuberculosis are emulsified in CFA and injected subcutaneously by means of four injections over the flanks. In addition, 200 ng of pertussis toxin dissolved in 200 μl PBS is injected i.p. at the day of immunization and again the day after. Mice are monitored daily for clinical signs of EAE, and scored according to the following criteria: 0, no signs of disease; 0.5, partial tail weakness; 1, limp tail; 1.5, limp tail and slight slowing of righting; 2, partial hind limb weakness and/or marked slowing of righting; 2.5, dragging of hind limb(s) without complete paralysis; 3, complete paralysis of at least one hind limb; 4, severe forelimb weakness; 5, moribund or dead. Daily clinical scores are calculated and presented as the average (mean) and standard error of the mean (SEM) of all individual disease scores in each group. Statistical comparison of disease severity by clinical score is accomplished by calculating the mean clinical score for each mouse from day of disease onset to day 60 and performing a non-parametric Wilcoxon analysis.\n[…] 8. DP is the only inhibitor known to block PDE 8 in addition to other PDEs. […]"}, "PDE8": {"tested_on": "PDE8", "settings": "read-out: Potency (IC50) PDE8; cited from earlier work"}, "[1]": {"tested_on": "peripheral blood mononuclear cells", "settings": "cited from earlier work"}, "bEnd.3 endothelial cells": {"tested_on": "bEnd.3 endothelial cells", "test": "qRT-PCR gene expression in TNF-α activated bEnd.3 endothelial cells", "assay_type": "cell-based, mouse", "settings": "DP 100 μM", "description": "Quantitative real-time RT-PCR analysis. 10 ng cDNA, or 2 μl cDNA for LCM studies, was amplified by qRT-PCR in a 25 μl reaction using SYBR Green PCR Master Mix (Applied Biosystems, Foster City, Calif.). Primers were designed using Primer Express software v3.0 and primer efficiency verified by slope analysis to be 100%±2.5%. qRT-PCR was performed using an ABI 7500 fast system and data analyzed using the Δ^ct method (SDS software v3.0). Amplicon sizes were approximately 100 bp.\nCell treatment. Confluent bEnd.3 monolayers were incubated with 200 ng/ml TNF-α (Peprotech, Rocky Hill, N.J.) at 37° c. for 2 hours. […] Christoff Zitt and Armin Hatzelmann (Altana Pharma, Konstanz, Germany). Con A-activated splenocytes or CD4^+CD25^− T cells activated with plate-bound anti-CD3 mAb were treated with the same reagents for 20, 45, or 90 minutes.\nIn FIG. 23A, bEnd.3 endothelial cells were activated for 2 hours with TNF-α (200 ng/ml) and (A) DP (100 μM) or vehicle (0.1% DMSO) for the final 45 minutes. PDE gene expression was then analyzed by qRT-PCR and the data presented as the mean+SEM of 3 independent experiments assayed in triplicate (*p<0.05, **p<0.001; unpaired t-test).\nThe data are shown as a mean±SEM percentage of vehicle control and represent 3 independent experiments assayed in triplicate (*p<0.05, * *p<0.001; unpaired t-test)."}, "[2]": {"settings": "45 minutes, dibutryl cAMP 500 μM, 8-bromo-cAMP 500 μM"}},
  "data": [
    {"smiles": "OCCN(CCO)c1nc(N2CCCCC2)c2nc(N(CCO)CCO)nc(N3CCCCC3)c2n1", "note": "[Dipyridamole, 2,2′,2″,2′″-(4,8-di(piperidin-1-yl)pyrimido[5,4-d]pyrimidine-2,6-diyl)bis(azanetriyl)tetraethanol]", "values": [
      {"measurement": "development of clinical signs of EAE", "setting": "EAE in C57BL/6 mice; 2 mg DP per mouse per day, day 0 until day 23", "value": "profoundly suppressed"},
      {"measurement": "clinical severity of EAE compared with vehicle", "setting": "EAE in C57BL/6 mice; treatment after onset (mean score grade 1), 2×1 mg/mouse/day i.p.", "value": "significantly decreased"},
      {"measurement": "IC50", "setting": "PDE8", "value": "4 to 9", "unit": "µM"},
      {"measurement": "lipopolysaccharide-stimulated release of TNF-α", "setting": "[1]", "value": "inhibit"},
      {"measurement": "reduction of ICAM-1 mRNA expression", "setting": "bEnd.3 endothelial cells; 45 minutes, dibutryl cAMP 500 μM", "value": 65, "unit": "%"},
      {"measurement": "increase of claudin-5 gene expression", "setting": "bEnd.3 endothelial cells; [2]", "value": 111, "unit": "%"},
      {"measurement": "reduction of CXCL12 gene expression", "setting": "bEnd.3 endothelial cells; [2]", "value": 69, "unit": "%"},
      {"measurement": "reduction of VCAM-1 gene expression", "setting": "bEnd.3 endothelial cells; [2]", "value": 60, "unit": "%"},
      {"measurement": "PDE4B expression in bEnd.3 cells", "setting": "bEnd.3 endothelial cells; final 45 minutes of TNF-α", "value": "compensatory increase"},
      {"measurement": "expression of other PDE genes, including PDE8A, in bEnd.3 cells", "setting": "bEnd.3 endothelial cells; final 45 minutes of TNF-α", "value": "not significantly altered"}
    ]}
  ]
}
